{
  "source": "paper PMC13164762",
  "about": "“Development and Validation of an LC-MS/MS Method for the Quantitation of JNJ-64619178 (JNJ) in Mouse Plasma: Characterization of In Vitro and In Vivo Pharmacokinetic Properties” (Molecules, 2026)",
  "key": {"[1]": {"experiment": "In vivo PK study (plasma, IV and PO)", "design": "species or system balb/c mice", "conditions": "for half-life: read-out: t1/2 (terminal half-life) (converted)", "experimental": "We performed in vivo PK analysis for JNJ by 2.5 mg kg^−1 IV and 10 mg kg^−1 PO routes of administration in healthy male balb/c mice. We could quantify a dynamic range of concentrations in in vivo PK samples with our established LC-MS/MS method. Non-compartmental analysis (NCA) was performed using Phoenix software version 8.3 to estimate PK parameters from the observed plasma concentration–time profile data. […] The NCA PK parameter data are represented in Table 6. For the oral PK study, male balb/C mice were grouped into two groups, with n = 4 for each group. Throughout the experiment, mice had free access to adequate food and water. The oral solution comprised 20% (v/v) polyethylene glycol 400, 10% (v/v) propylene glycol, 10% (v/v) ethanol, 2% (v/v) DMSO, 5% cremophore, and water as the rest of the volume. For the IV dose administration, 12 male balb/C mice were used in the study, divided into two groups. The IV solution used the same composition as the oral study. Doses of 10 and 2.5 mg kg^−1 were used for oral and IV routes, respectively. Blood samplings were done at 5 min, 15 min, 30 min, 1 h, 2 h, 4 h, 8 h, and 24 h. After collection, blood samples were centrifuged immediately at 956× g for 10 min, and plasma was separated in an Eppendorf tube and stored at −80 °C until processed. In the oral PK study, tissues—liver, kidney, spleen, lung, and brain—were collected at 2, 8, and 24 h to assess the biodistribution pattern of JNJ in the oral route."}, "[2]": {"experiment": "Kinetic solubility study", "type": "physicochemical", "conditions": "PBS, room temperature, read-out: kinetic aqueous solubility", "experimental": "An amount of 500 µL of PBS was taken into a 96-well plate in the required rows. The required volume of the JNJ stock solution was spiked to make the final concentrations of 160, 80, 60, 50, 40, 20, 10, and 5 µg mL^−1. The plate was vortexed at 1000 rpm for 5 min and incubated at room temperature for 2 h. After incubation, aliquots of 100 µL of the samples were collected and diluted 2 times with acetonitrile. Diluted samples were centrifuged at 2200× g for 10 min. Then, 10 µL of supernatant was added to another collection plate, where previously 200 µL of the mobile phase supplemented with 10 µL IS was taken."}, "[3]": {"test_system": "HD-MB cell line", "conditions": "method and reference not given; cited from earlier work"}, "[4]": {"experiment": "Rapid equilibrium dialysis (RED) plasma protein binding", "type": "in vitro ADME", "conditions": "for fraction unbound at 5 h: mouse, plasma", "experimental": "A rapid equilibrium dialysis (RED) protein binding assay was performed to determine the protein binding of JNJ in plasma and brain matrix. The RED plate was obtained from Thermo Fisher Scientific (Frederick, MD, USA) for the experiment. An aliquot (200 µL) of JNJ spiked plasma/brain homogenate was poured into the donor chamber, and 400 µL dialysis buffer-PBS containing 100 mM sodium phosphate and 150 mM sodium chloride was added into the receiver compartment of each RED insert in triplicate. The plate was kept in incubation for 5 h on the orbital shaker at 37 °C. Following incubation, 50 µL plasma and buffer aliquots were collected separately, and an equal volume of opposite matrix was added. Collected samples were processed as previously described in Section 4.6 and analyzed using LC-MS/MS. Degree of protein binding (%) was calculated by the following equation:(6) Protein bound (%)=Concentrationdonor cell−Concentrationreceiver cell/Concentrationdonor cell×100"}, "[5]": {"experiment": "Blood-to-plasma ratio (Rb/p) study", "type": "in vitro ADME", "conditions": "balb/c mouse whole blood", "experimental": "Freshly collected whole blood (400 µL) of balb/c mice was taken into an Eppendorf tube, and JNJ was spiked to obtain a final concentration at 5 µg mL^−1 following proper mixing. Blood and plasma samples were collected at 0, 30, and 60 min and processed using the previously described extraction procedure. Rb/p was then estimated by dividing the JNJ concentration in blood by the concentration obtained in plasma samples separated from blood using Equation (5), where CBlood is the drug concentration in blood and CPlasma is the drug concentration in plasma.(7) Rb/p=CBlood/CPlasma"}, "[6]": {"experiment": "Matrix stability study in mouse brain homogenate", "type": "in vitro ADME", "conditions": "5 µg mL^−1, 37 °C, approximately 5 h, triplicate, read-out: concentration remaining (%)", "experimental": "For the matrix stability study, JNJ was spiked into mouse plasma and brain homogenate at a final concentration of 5 µg mL^−1 and incubated at 37 °C for 5 h on a shaking water bath in triplicate. At the specified sampling times, 50 µL aliquots were taken in the collection plate, followed by quenching with 300 µL acetonitrile containing 10 µL IS. After final collection, samples were vortexed at 1000 rpm for 2 min and centrifuged at 2200× g for 10 min, and the collected supernatant was analyzed using LC-MS/MS. Stability was estimated by determining the % remaining after 5 h of incubation using Equation (1).(1) % remaining=Concentration5h/Concentration0h×100"}, "[7]": {"conditions": "male, mouse, IV 2.5 mg kg^−1, balb/c mice, plasma, n = 6"}, "[8]": {"conditions": "male, mouse, PO 10 mg kg^−1, balb/c mice, plasma, n = 4"}},
  "note": "“And” between values parts separate entries of the source, which are not always exact repeats. Equal values may be shown once. Read-outs that look alike come from different tables or passages of the source.",
  "data": [
    {"compound": "Nc1nc2cc(CC[C@H]3C[C@@H](n4ccc5c(N)ncnc54)[C@H](O)[C@@H]3O)ccc2cc1Br", "note": "[JNJ, JNJ-64619178]", "values": [
      {"measurement": "underestimation of observed plasma clearance by predicted hepatic clearance", "setting": "[1]; 1.6 vs 3.8 mL min^−1 kg^−1, mice", "value": "approximately 2.3 fold"},
      {"measurement": "in vivo clearance as % of mice hepatic blood flow", "setting": "[1]; IV, hepatic blood flow 3.6 L h^−1 kg^−1", "value": "~6", "unit": "%"},
      {"measurement": "volume of distribution relative to total body water", "setting": "[1]; IV, total body water 68.6% of body weight", "value": "~ 1.6 times"},
      {"measurement": "CL (plasma clearance)", "setting": "[1]; PO 10 mg kg^−1, balb/c mice, oral CL normalized by bioavailability (%)", "value": "3.83 ± 0.67", "unit": "mL/min/kg"},
      {"measurement": "Vz (volume of distribution)", "setting": "[1]; PO 10 mg kg^−1, balb/c mice, oral Vz normalized by bioavailability (%)", "value": "0.88 ± 0.32", "unit": "L/kg"},
      {"measurement": "Tmax", "setting": "[1]; PO 10 mg kg^−1, mice, plasma", "value": "~ 30 min"},
      {"measurement": "Cmax relative to IC50 in the HD-MB cell line", "setting": "[1]; PO 10 mg kg^−1, times higher than IC50 (821 ng mL^−1)", "value": "~ 3 times"},
      {"measurement": "clearance", "setting": "[1]; male, balb/c, mouse, plasma, 2.5 mg kg^−1, IV, equivalent to 0.23 L h^−1 kg^−1, read-out: observed plasma clearance", "value": 3.8, "unit": "mL/min/kg"},
      {"measurement": "Tmax", "setting": "[1]; male, balb/c, mouse, plasma, iv, 2.5 mg/kg, IV 2.5 mg kg^−1, balb/c mice, plasma, n = 6, read-out: Tmax (converted)", "value": "6.6 ± 4.8", "unit": "min"},
      {"measurement": "Tmax", "setting": "[1]; male, balb/c, mouse, plasma, po, 10 mg/kg, PO 10 mg kg^−1, balb/c mice, plasma, n = 4, read-out: Tmax (converted)", "value": "25.2 ± 8.4", "unit": "min"},
      {"measurement": "Tmax", "setting": "[1]; male, balb/c, mouse, plasma, po, 10 mg/kg, PO 10 mg kg^−1, mice, plasma, read-out: Tmax (converted)", "value": 30, "unit": "min"},
      {"measurement": "clearance", "setting": "[1]; male, mouse, plasma, IV 2.5 mg kg^−1, balb/c mice, n = 6, read-out: CL (plasma clearance) (converted)", "value": 3.83, "unit": "mL/min/kg"},
      {"measurement": "Vd", "setting": "[1]; male, mouse, plasma, IV 2.5 mg kg^−1, balb/c mice, n = 6, read-out: Vz (volume of distribution)", "value": "1.2 ± 0.7", "unit": "L/kg"},
      {"measurement": "half-life", "setting": "[1]; male, mouse, plasma, IV 2.5 mg kg^−1, balb/c mice, n = 6", "value": "198 ± 66", "unit": "min"},
      {"measurement": "half-life", "setting": "[1]; male, mouse, plasma, PO 10 mg kg^−1, balb/c mice, n = 4", "value": "156 ± 42", "unit": "min"},
      {"measurement": "bioavailability", "setting": "[1]; male, mouse, plasma, PO 10 mg kg^−1 vs IV 2.5 mg kg^−1, balb/c mice", "value": "~15% and 15%"},
      {"measurement": "AUC", "setting": "[1]; [7]", "value": 11600, "unit": "ng·h/mL"},
      {"measurement": "Cmax", "setting": "[1]; [7]", "value": "4940 ± 1220", "unit": "ng/mL"},
      {"measurement": "AUC", "setting": "[1]; [8]", "value": "6800 ± 1270", "unit": "ng·h/mL"},
      {"measurement": "Cmax", "setting": "[1]; [8]", "value": "2780 ± 1030", "unit": "ng/mL"},
      {"measurement": "solubility kinetic at 2 h", "setting": "[2]", "value": "3 ± 0.6", "unit": "µg/mL"},
      {"measurement": "IC50", "setting": "[3]", "value": 1.7, "unit": "µM"},
      {"measurement": "In Vitro IC50", "setting": "[3]", "value": 0.821, "unit": "µg/mL"},
      {"measurement": "Plasma Protein Binding (%)", "setting": "[4]; mouse plasma, RED, 5 h, 37 °C, n = 3", "value": "97 ± 3", "unit": "%"},
      {"measurement": "fraction unbound at 5 h", "setting": "[4]; RED, 5 h, 37 °C, n = 3, read-out: Plasma Protein Binding (%)", "value": "< 0.06"},
      {"measurement": "fraction unbound at 5 h", "setting": "[4]; read-out: fraction unbound in plasma (fu,plasma)", "value": 0.025},
      {"measurement": "blood plasma ratio at 5 µg mL^−1", "setting": "[5]", "value": "~0.7"},
      {"measurement": "remaining at 5 h, 5 µg mL^−1", "setting": "[6]", "value": "~100", "unit": "%"}
    ]}
  ]
}
